Reference: the NIST ThermoML archive (doi:10.1016/j.jct.2010.08.019)
± gives the expanded uncertainty stated by the source.

Test: refractive index (Na D-line) (dimensionless); xn = mol fraction of the nth substance listed
Conditions: 101 kPa, Liquid, Standard Abbe refractometry

C1CCOCC1 [tetrahydropyran] + CC(C)CC(C)(C)C
Conditions	refractive index
293.15 K, x1 = 0.0502	1.39259 ± 0.00033
293.15 K, x1 = 0.1	1.39359 ± 0.00033
293.15 K, x1 = 0.1499	1.39461 ± 0.00033
293.15 K, x1 = 0.2	1.39567 ± 0.00033
293.15 K, x1 = 0.25	1.39677 ± 0.00034
293.15 K, x1 = 0.3	1.39792 ± 0.00034
293.15 K, x1 = 0.35	1.39911 ± 0.00034
293.15 K, x1 = 0.4	1.40036 ± 0.00034
293.15 K, x1 = 0.4498	1.40167 ± 0.00034
293.15 K, x1 = 0.5001	1.40303 ± 0.00035
293.15 K, x1 = 0.5501	1.40446 ± 0.00035
293.15 K, x1 = 0.5999	1.40595 ± 0.00035
293.15 K, x1 = 0.6501	1.40753 ± 0.00035
293.15 K, x1 = 0.6999	1.40917 ± 0.00035
293.15 K, x1 = 0.75	1.41092 ± 0.00036
293.15 K, x1 = 0.8	1.41274 ± 0.00036
293.15 K, x1 = 0.8501	1.41468 ± 0.00036
293.15 K, x1 = 0.9	1.4167 ± 0.00036
293.15 K, x1 = 0.95	1.41885 ± 0.00037
293.15 K, x1 = 1	1.42109 ± 0.00037
303.15 K, x1 = 0.0502	1.38756 ± 0.00033
303.15 K, x1 = 0.1	1.38853 ± 0.00033
303.15 K, x1 = 0.1499	1.38953 ± 0.00033
303.15 K, x1 = 0.2	1.39057 ± 0.00033
303.15 K, x1 = 0.25	1.39166 ± 0.00034
303.15 K, x1 = 0.2999	1.39279 ± 0.00034
303.15 K, x1 = 0.3498	1.39399 ± 0.00034
303.15 K, x1 = 0.3998	1.39524 ± 0.00034
303.15 K, x1 = 0.4498	1.39654 ± 0.00034
303.15 K, x1 = 0.5001	1.3979 ± 0.00035
303.15 K, x1 = 0.5501	1.39932 ± 0.00035
303.15 K, x1 = 0.5999	1.40081 ± 0.00035
303.15 K, x1 = 0.6501	1.40239 ± 0.00035
303.15 K, x1 = 0.6999	1.40403 ± 0.00035
303.15 K, x1 = 0.75	1.40577 ± 0.00036
303.15 K, x1 = 0.8	1.4076 ± 0.00036
303.15 K, x1 = 0.8501	1.40954 ± 0.00036
303.15 K, x1 = 0.9	1.41158 ± 0.00036
303.15 K, x1 = 0.95	1.41373 ± 0.00037
303.15 K, x1 = 1	1.41599 ± 0.00037
313.15 K, x1 = 0.0501	1.38237 ± 0.00033
313.15 K, x1 = 0.1002	1.38334 ± 0.00033
313.15 K, x1 = 0.1501	1.38433 ± 0.00033
313.15 K, x1 = 0.1999	1.38537 ± 0.00033
313.15 K, x1 = 0.2501	1.38645 ± 0.00034
313.15 K, x1 = 0.3	1.38759 ± 0.00034
313.15 K, x1 = 0.3499	1.38877 ± 0.00034
313.15 K, x1 = 0.4002	1.39001 ± 0.00034
313.15 K, x1 = 0.4502	1.39131 ± 0.00034
313.15 K, x1 = 0.4999	1.39266 ± 0.00035
313.15 K, x1 = 0.5499	1.39409 ± 0.00035
313.15 K, x1 = 0.6	1.39559 ± 0.00035
313.15 K, x1 = 0.65	1.39716 ± 0.00035
313.15 K, x1 = 0.6998	1.39881 ± 0.00035
313.15 K, x1 = 0.75	1.40055 ± 0.00036
313.15 K, x1 = 0.8001	1.40239 ± 0.00036
313.15 K, x1 = 0.8501	1.40432 ± 0.00036
313.15 K, x1 = 0.9001	1.40638 ± 0.00036
313.15 K, x1 = 0.9498	1.40857 ± 0.00037
313.15 K, x1 = 1	1.41092 ± 0.00037
323.15 K, x1 = 0.0501	1.37719 ± 0.00033
323.15 K, x1 = 0.1002	1.37814 ± 0.00033
323.15 K, x1 = 0.1501	1.37913 ± 0.00033
323.15 K, x1 = 0.1999	1.38015 ± 0.00033
323.15 K, x1 = 0.2501	1.38122 ± 0.00034
323.15 K, x1 = 0.3	1.38233 ± 0.00034
323.15 K, x1 = 0.3499	1.38349 ± 0.00034
323.15 K, x1 = 0.4002	1.38471 ± 0.00034
323.15 K, x1 = 0.45	1.38599 ± 0.00034
323.15 K, x1 = 0.5002	1.38733 ± 0.00035
323.15 K, x1 = 0.55	1.38874 ± 0.00035
323.15 K, x1 = 0.5997	1.39022 ± 0.00035
323.15 K, x1 = 0.65	1.39179 ± 0.00035
323.15 K, x1 = 0.6998	1.39343 ± 0.00035
323.15 K, x1 = 0.75	1.39518 ± 0.00036
323.15 K, x1 = 0.8001	1.39701 ± 0.00036
323.15 K, x1 = 0.8501	1.39895 ± 0.00036
323.15 K, x1 = 0.9002	1.40101 ± 0.00037
323.15 K, x1 = 0.95	1.40319 ± 0.00037
323.15 K, x1 = 1	1.40554 ± 0.00037

CC(C)CC(C)(C)C [2,2,4-trimethylpentane] + CC(C)O
Conditions	refractive index
293.15 K, x2 = 0.2501	1.41104 ± 0.00033
293.15 K, x2 = 0.3003	1.40906 ± 0.00033
293.15 K, x2 = 0.3502	1.40701 ± 0.00033
293.15 K, x2 = 0.4004	1.40497 ± 0.00033
293.15 K, x2 = 0.4502	1.4029 ± 0.00033
293.15 K, x2 = 0.5001	1.40079 ± 0.00033
293.15 K, x2 = 0.55	1.39865 ± 0.00033
293.15 K, x2 = 0.5998	1.39647 ± 0.00033
293.15 K, x2 = 0.6502	1.39422 ± 0.00033
293.15 K, x2 = 0.7002	1.39194 ± 0.00033
293.15 K, x2 = 0.7499	1.38965 ± 0.00033
293.15 K, x2 = 0.7999	1.38727 ± 0.00033
293.15 K, x2 = 0.85	1.38486 ± 0.00033
293.15 K, x2 = 0.8999	1.38241 ± 0.00033
293.15 K, x2 = 0.95	1.37993 ± 0.00033
303.15 K, x2 = 0	1.41599 ± 0.00033
303.15 K, x2 = 0.05	1.41398 ± 0.00033
303.15 K, x2 = 0.1	1.41198 ± 0.00033
303.15 K, x2 = 0.1499	1.41 ± 0.00033
303.15 K, x2 = 0.2004	1.408 ± 0.00033
303.15 K, x2 = 0.2497	1.40602 ± 0.00033
303.15 K, x2 = 0.3	1.40405 ± 0.00033
303.15 K, x2 = 0.3499	1.40202 ± 0.00033
303.15 K, x2 = 0.4008	1.40001 ± 0.00033
303.15 K, x2 = 0.4503	1.39797 ± 0.00033
303.15 K, x2 = 0.5	1.3959 ± 0.00033
303.15 K, x2 = 0.5498	1.3938 ± 0.00033
303.15 K, x2 = 0.6001	1.39166 ± 0.00033
303.15 K, x2 = 0.65	1.38947 ± 0.00033
303.15 K, x2 = 0.7001	1.38724 ± 0.00033
303.15 K, x2 = 0.7495	1.38498 ± 0.00033
303.15 K, x2 = 0.7989	1.38267 ± 0.00033
303.15 K, x2 = 0.8499	1.3803 ± 0.00033
303.15 K, x2 = 0.8997	1.37788 ± 0.00033
303.15 K, x2 = 0.95	1.37545 ± 0.00033
313.15 K, x2 = 0	1.41092 ± 0.00033
313.15 K, x2 = 0.0499	1.40889 ± 0.00033
313.15 K, x2 = 0.1001	1.40693 ± 0.00033
313.15 K, x2 = 0.1503	1.40494 ± 0.00033
313.15 K, x2 = 0.2001	1.40299 ± 0.00033
313.15 K, x2 = 0.2499	1.40102 ± 0.00033
313.15 K, x2 = 0.3003	1.39906 ± 0.00033
313.15 K, x2 = 0.3497	1.39707 ± 0.00033
313.15 K, x2 = 0.4	1.39507 ± 0.00033
313.15 K, x2 = 0.4502	1.39301 ± 0.00033
313.15 K, x2 = 0.5005	1.39098 ± 0.00033
313.15 K, x2 = 0.5499	1.38891 ± 0.00033
313.15 K, x2 = 0.6	1.38681 ± 0.00033
313.15 K, x2 = 0.6498	1.38469 ± 0.00033
313.15 K, x2 = 0.6999	1.38251 ± 0.00033
313.15 K, x2 = 0.75	1.38031 ± 0.00033
313.15 K, x2 = 0.7998	1.37808 ± 0.00033
313.15 K, x2 = 0.8498	1.37578 ± 0.00033
313.15 K, x2 = 0.8999	1.37345 ± 0.00033
313.15 K, x2 = 0.9499	1.37107 ± 0.00033
323.15 K, x2 = 0	1.40554 ± 0.00033
323.15 K, x2 = 0.0501	1.40351 ± 0.00033
323.15 K, x2 = 0.1	1.40154 ± 0.00033
323.15 K, x2 = 0.15	1.39952 ± 0.00033
323.15 K, x2 = 0.1998	1.39757 ± 0.00033
323.15 K, x2 = 0.25	1.39566 ± 0.00033
323.15 K, x2 = 0.3	1.39368 ± 0.00033
323.15 K, x2 = 0.35	1.39173 ± 0.00033
323.15 K, x2 = 0.4	1.38974 ± 0.00033
323.15 K, x2 = 0.4499	1.38775 ± 0.00033
323.15 K, x2 = 0.5	1.38572 ± 0.00033
323.15 K, x2 = 0.5501	1.38366 ± 0.00033
323.15 K, x2 = 0.6	1.38161 ± 0.00033
323.15 K, x2 = 0.65	1.37953 ± 0.00033
323.15 K, x2 = 0.7	1.37741 ± 0.00033
323.15 K, x2 = 0.7499	1.37522 ± 0.00033
323.15 K, x2 = 0.7999	1.37303 ± 0.00033
323.15 K, x2 = 0.85	1.3708 ± 0.00033
323.15 K, x2 = 0.9	1.36851 ± 0.00033
323.15 K, x2 = 0.95	1.36617 ± 0.00033
